Test results from paper PMC6719666 (Acta Crystallographica. Section D, Structural Biology, 2019).

Target: T1, BcGDHγα (Burkholderia cepacia, UniProt Q8GQE7)
T1 construct: gene gdhAlpha; alpha (539 aa, 60 kDa) with C-terminal His tag; gamma 168 aa with signal peptide, mature 121 aa (13 kDa); pTrc99A, E. coli BL21(DE3); no beta-subunit; heterodimer; purified by Ni and cation exchange; with Glucose dehydrogenase gamma subunit (hitchhiker protein, small subunit)
T1 sequence (Q8GQE7 1-539): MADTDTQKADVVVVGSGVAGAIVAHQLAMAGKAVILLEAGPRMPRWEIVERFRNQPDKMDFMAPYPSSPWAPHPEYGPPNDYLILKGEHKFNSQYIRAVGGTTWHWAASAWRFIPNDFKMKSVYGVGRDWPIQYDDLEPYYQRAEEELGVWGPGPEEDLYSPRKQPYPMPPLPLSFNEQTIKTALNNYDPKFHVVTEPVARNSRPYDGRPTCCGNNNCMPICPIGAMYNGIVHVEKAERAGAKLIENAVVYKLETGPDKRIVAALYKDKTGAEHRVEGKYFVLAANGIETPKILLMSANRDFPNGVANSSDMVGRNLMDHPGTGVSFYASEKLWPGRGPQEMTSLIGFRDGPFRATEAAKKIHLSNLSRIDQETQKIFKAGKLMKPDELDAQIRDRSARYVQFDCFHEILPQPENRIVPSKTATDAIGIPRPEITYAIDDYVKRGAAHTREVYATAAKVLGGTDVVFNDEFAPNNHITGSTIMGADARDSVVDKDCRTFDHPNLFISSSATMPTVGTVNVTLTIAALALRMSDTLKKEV
T1 sequence (A0A0H3KLY3 48-168 partner): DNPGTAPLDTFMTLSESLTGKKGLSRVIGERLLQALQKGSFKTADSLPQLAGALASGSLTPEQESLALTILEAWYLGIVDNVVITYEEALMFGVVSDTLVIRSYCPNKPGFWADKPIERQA
Assay: X-ray crystal structure, […] Å
Format: binding
Details: covalent; C8M of FAD to His105 of the alpha-subunit

For `Cc1cc2nc3c(=O)[nH]c(=O)nc-3n(C[C@H](O)[C@H](O)[C@H](O)COP(=O)(O)OP(=O)(O)OC[C@H]3O[C@@H](n4cnc5c(N)ncnc54)[C@H](O)[C@@H]3O)c2cc1C` [FAD], the “X-ray crystal structure, 2.6 Å” value was “a covalent bond was deemed to form between FAD and His105 in the α-subunit”.
